Reference: patent publication US20030044800A1, “Drug discovery employing calorimetric target triage” (priority 2000, published 2003)

What was measured:
hexokinase = assay: Calorimetric deconvolution of a cofactor mixture with hexokinase and glucose; type: biochemical; details: 5 μL of 20 μM hexokinase into 100 μM glucose and cofactors at 1 mM
Procedure: Hexokinase and glucose were present in each test. Various mixtures of cofactors were added to each test. Only when ATP was present in the mixture was a significant amount of heat generated. 5 μL injections of a 20 μM solution of hexokinase were titrated into a solution of 100 μM glucose and one or more “cofactors”, all at 1 mM concentration. In the initial experiment with the entire library of 15 cofactors present, enzymatic turnover was observed (as in FIG. 12a(ii)). We were then able to successfully separate out the cofactors in subsequent experiments to determine which one was actually necessary to allow the hexokinase to turn over the glucose. […] Only tiny heats of dilution are observed when ATP is absent;

E. coli protein YJEQ = E. coli protein YJEQ (Escherichia coli, UniProt P39286); assay: Calorimetric titration of GTP-gamma-S into E. coli protein YJEQ; type: binding; details: 5 μL injections of 11 mM GTP-gamma-S into 2 mL of 385 μM protein
Procedure: 5 μL injections of an 11 mM GTP-gamma-S solution were titrated into 2 mL of a solution containing 385 μM of an E. coli protein for which no function was previously known.

SMILES	heat on injection of hexokinase (cofactor needed for turnover of glucose) (hexokinase)	Kd (E. coli protein YJEQ)
Nc1ncnc2c1ncn2[C@@H]1O[C@H](COP(=O)(O)OP(=O)(O)OP(=O)(O)O)[C@@H](O)[C@H]1O [ATP]	large negative heat	
Nc1nc2c(ncn2[C@@H]2O[C@H](COP(=O)(O)OP(=O)(O)OP(O)(O)=S)[C@@H](O)[C@H]2O)c(=O)[nH]1 [GTP-gamma-S]		115 µM
